What is called IC50 is the concentration that gives 50% inhibition. In general, Ki refers to the dissociation constant of the complex between target and ligand, obtained from inhibition or displacement.

Results on 18 compounds are retold here after ChEMBL document CHEMBL1909046, “DrugMatrix in vitro pharmacology data”.

One series addresses Carbonic anhydrase 2 (Homo sapiens, UniProt P00918). The experiment in a line: DRUGMATRIX: Carbonic Anhydrase II enzyme inhibition (substrate: 4-Nitrophenyl acetate (4-NPA)). As to conditions: erythrocyte; Not Active = under 50% inhibition at 10 µM. In kind it is tissue-based, Erythrocyte.
In another series the target is Melanocortin receptor 5 (Homo sapiens, UniProt P33032). In kind it is cell membranes, HEK293, Membrane. As to conditions: hek293. Also: in other assays of this panel Not Active means under 50% inhibition at 10 µM.
Sequence of Melanocortin receptor 5 (P33032 whole entry): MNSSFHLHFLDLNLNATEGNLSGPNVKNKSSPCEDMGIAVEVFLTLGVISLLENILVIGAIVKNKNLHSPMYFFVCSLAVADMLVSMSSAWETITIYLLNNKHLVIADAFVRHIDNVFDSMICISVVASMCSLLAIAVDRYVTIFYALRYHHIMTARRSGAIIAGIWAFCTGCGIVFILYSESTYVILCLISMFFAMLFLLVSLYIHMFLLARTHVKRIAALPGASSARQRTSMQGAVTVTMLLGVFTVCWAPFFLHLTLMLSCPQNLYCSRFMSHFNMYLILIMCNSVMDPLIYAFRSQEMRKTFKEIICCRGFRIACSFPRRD
Series [1] concerns the target T1, Muscarinic acetylcholine receptor M5 (Homo sapiens, UniProt P08912). Also: in other assays of this panel Not Active means under 50% inhibition at 10 µM.
T1 sequence (P08912 whole entry): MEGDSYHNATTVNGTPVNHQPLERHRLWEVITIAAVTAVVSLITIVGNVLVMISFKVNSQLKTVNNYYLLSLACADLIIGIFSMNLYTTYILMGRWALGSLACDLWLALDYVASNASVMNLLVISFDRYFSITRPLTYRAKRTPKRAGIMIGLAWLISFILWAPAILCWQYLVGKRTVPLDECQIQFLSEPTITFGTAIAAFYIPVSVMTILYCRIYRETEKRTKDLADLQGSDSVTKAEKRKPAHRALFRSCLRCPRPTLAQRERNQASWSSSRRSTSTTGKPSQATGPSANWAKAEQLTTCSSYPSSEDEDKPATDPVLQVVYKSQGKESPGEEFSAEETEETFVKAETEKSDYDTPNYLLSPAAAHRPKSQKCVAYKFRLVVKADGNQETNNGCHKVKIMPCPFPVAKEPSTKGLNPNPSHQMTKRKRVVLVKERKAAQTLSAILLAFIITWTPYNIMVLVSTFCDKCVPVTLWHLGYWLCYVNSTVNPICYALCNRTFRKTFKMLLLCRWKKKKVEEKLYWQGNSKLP
Type of series: cell membranes, Membrane. As to conditions: cho-k1.

The next series addresses Cytochrome P450 2C19 (Homo sapiens, UniProt P33261). As to conditions: bti-tn-5b1-4.
The target in a further series is T2, Leukotriene C4 synthase (Cavia porcellus, UniProt A6XA80).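 Also: enzyme inhibition assay of leukotriene C4 synthase, using LTA4 as the substrate; in other assays of this panel Not Active means under 50% inhibition at 10 µM.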
T2 sequence (A6XA80 whole entry): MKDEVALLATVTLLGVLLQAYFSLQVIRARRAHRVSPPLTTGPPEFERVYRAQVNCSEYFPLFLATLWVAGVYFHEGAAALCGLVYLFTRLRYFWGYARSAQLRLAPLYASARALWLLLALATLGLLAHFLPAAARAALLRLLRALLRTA
In kind it is tissue-based, Lung.

Series [2] is described as follows: DRUGMATRIX: Calcium Channel Type L, Dihydropyridine radioligand binding (ligand: [3H] Nitrendipine). In kind it is cell membranes, Rattus norvegicus, Wistar, Cerebral cortex, Membrane. As to conditions: Not Active = under 50% inhibition at 10 µM.
The next series concerns the target Mu-type opioid receptor (Homo sapiens, UniProt P35372). Description: DRUGMATRIX: Opiate mu (OP3, MOP) radioligand binding (ligand: [3H] Diprenorphine). Type of series: cell membranes, CHO-K1, Membrane. As to conditions: Not Active = under 50% inhibition at 10 µM.

Each structure is given as a SMILES string.

Sequence of Mu-type opioid receptor (P35372 whole entry): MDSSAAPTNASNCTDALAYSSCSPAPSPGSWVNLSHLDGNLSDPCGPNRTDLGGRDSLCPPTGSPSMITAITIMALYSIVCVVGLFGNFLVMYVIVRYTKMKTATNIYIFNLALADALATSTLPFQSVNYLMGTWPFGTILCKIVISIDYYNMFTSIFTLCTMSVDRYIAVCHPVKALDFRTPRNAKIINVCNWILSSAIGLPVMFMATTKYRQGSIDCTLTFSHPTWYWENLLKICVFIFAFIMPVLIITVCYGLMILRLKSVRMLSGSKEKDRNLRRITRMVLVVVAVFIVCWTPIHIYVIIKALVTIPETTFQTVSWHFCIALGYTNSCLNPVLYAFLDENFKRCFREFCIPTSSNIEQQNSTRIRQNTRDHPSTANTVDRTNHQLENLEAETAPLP
Sequence of Cytochrome P450 2C19 (P33261 whole entry): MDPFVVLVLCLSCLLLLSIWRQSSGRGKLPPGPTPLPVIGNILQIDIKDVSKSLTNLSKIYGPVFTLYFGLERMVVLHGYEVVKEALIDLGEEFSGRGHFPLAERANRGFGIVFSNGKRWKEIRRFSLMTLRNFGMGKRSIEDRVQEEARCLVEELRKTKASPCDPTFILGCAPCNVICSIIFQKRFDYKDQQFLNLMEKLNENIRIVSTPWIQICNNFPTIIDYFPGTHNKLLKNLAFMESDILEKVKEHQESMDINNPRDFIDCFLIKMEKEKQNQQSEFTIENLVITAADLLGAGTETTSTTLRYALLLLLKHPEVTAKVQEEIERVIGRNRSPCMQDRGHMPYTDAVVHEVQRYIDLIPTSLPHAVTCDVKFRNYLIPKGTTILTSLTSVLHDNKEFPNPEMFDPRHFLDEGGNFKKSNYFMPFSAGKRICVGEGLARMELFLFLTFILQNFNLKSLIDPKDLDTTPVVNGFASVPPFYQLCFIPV

On to `CC[C@H]1OC(=O)[C@H](C)[C@@H](O[C@H]2C[C@@](C)(OC)[C@@H](O)[C@H](C)O2)[C@H](C)[C@@H](O[C@@H]2O[C@H](C)C[C@H](N(C)C)[C@H]2O)[C@](C)(OC)C[C@@H](C)C(=O)[C@H](C)[C@@H](O)[C@]1(C)O` [CLARITHROMYCIN], for which the IC50 entry (on Carbonic anhydrase 2; at Melanocortin receptor 5; in series [1]; on Cytochrome P450 2C19; on Leukotriene C4 synthase; in series [2]) was “Not Active” in each case. Also, the IC50 entry on Mu-type opioid receptor (cho-k1) was “Not Active”. The Ki entry (on Cytochrome P450 2C19; in series [2]) was “Not Active” in each case.

Consider `O=C(O)c1cc(=O)c2c(OCC(O)COc3cccc4oc(C(=O)O)cc(=O)c34)cccc2o1` [CROMOLYN], for which the IC50 entry (on Carbonic anhydrase 2; against Melanocortin receptor 5; in series [1]; at Cytochrome P450 2C19; at Leukotriene C4 synthase; in series [2]) was “Not Active” each time. For the same compound, the IC50 entry at Mu-type opioid receptor (cho-k1) is “Not Active”. The Ki result (on Cytochrome P450 2C19; in series [2]) was “Not Active” throughout.

For the compound `O=P1(N(CCCl)CCCl)NCCCO1` (stereo not given) [CYCLOPHOSPHAMIDE ANHYDROUS], the IC50 result (at Carbonic anhydrase 2; on Melanocortin receptor 5; in series [1]; on Cytochrome P450 2C19; at Leukotriene C4 synthase; in series [2]) was “Not Active” throughout. Further, the half-maximal inhibitory concentration (IC50) entry on Mu-type opioid receptor (cho-k1) is “Not Active”. Besides, the Ki result (on Cytochrome P450 2C19; in series [2]) was “Not Active” each time.

Consider `CC(=O)O[C@]1(C(C)=O)CC[C@H]2[C@@H]3C=C(Cl)C4=CC(=O)[C@@H]5C[C@@H]5[C@]4(C)[C@H]3CC[C@@]21C` [CYPROTERONE ACETATE], for which the IC50 entry (against Carbonic anhydrase 2; against Melanocortin receptor 5; in series [1]; on Cytochrome P450 2C19; on Leukotriene C4 synthase; in series [2]) was “Not Active” throughout. Also, the IC50 at Mu-type opioid receptor (read-out: IC50) was determined as 2.18 µM. Further, the Ki entry on Cytochrome P450 2C19 is “Not Active”; in series [2], “Not Active”; at Mu-type opioid receptor, 0.886 µM.

Regarding `C#C[C@]1(O)CC[C@H]2[C@@H]3CCC4=Cc5oncc5C[C@]4(C)[C@H]3CC[C@@]21C` [DANAZOL], the IC50 result is “Not Active” at Carbonic anhydrase 2; “Not Active” on Melanocortin receptor 5; “Not Active” in series [1]; “Not Active” at Cytochrome P450 2C19; “Not Active” against Leukotriene C4 synthase; 19.6 µM in series [2] (read-out: IC50). The IC50 at Mu-type opioid receptor (read-out: IC50) worked out at 14.1 µM. Also, the values for the Ki result (at Cytochrome P450 2C19; in series [2] (read-out: Ki); at Mu-type opioid receptor) were “Not Active”, 12.6 µM and 5.72 µM, respectively.

In the case of `CCN[C@@H](C)Cc1cccc(C(F)(F)F)c1` [DEXFENFLURAMINE], the IC50 result (against Carbonic anhydrase 2; against Melanocortin receptor 5; in series [1]; against Cytochrome P450 2C19; against Leukotriene C4 synthase; in series [2]) was “Not Active” each time. Besides, at Mu-type opioid receptor (cho-k1), the IC50 entry is given as “Not Active”. Further, the Ki entry (on Cytochrome P450 2C19; in series [2]) was “Not Active” each time.

Take `C[C@H](C(=O)O)c1cccc(C(=O)c2ccccc2)c1` [DEXKETOPROFEN]: the IC50 result (at Carbonic anhydrase 2; at Melanocortin receptor 5; in series [1]; against Cytochrome P450 2C19; on Leukotriene C4 synthase; in series [2]) was “Not Active” in each case. In addition, the IC50 result on Mu-type opioid receptor (cho-k1) was “Not Active”. Further, the Ki result (at Cytochrome P450 2C19; in series [2]) was “Not Active” throughout.

For the compound `Cc1c(N(C)CS(=O)(=O)[O-])c(=O)n(-c2ccccc2)n1C.[Na+]` [DIPYRONE SODIUM], the IC50 result (on Carbonic anhydrase 2; against Melanocortin receptor 5; in series [1]; against Cytochrome P450 2C19; against Leukotriene C4 synthase; in series [2]) was “Not Active” in each case. Besides, the IC50 entry on Mu-type opioid receptor (cho-k1) was “Not Active”. For the same compound, the inhibition constant (Ki) entry (at Cytochrome P450 2C19; in series [2]) was “Not Active” each time.

On to `CC(CCc1ccc(O)cc1)NCCc1ccc(O)c(O)c1` (stereo not given) [DOBUTAMINE], for which the IC50 result (against Carbonic anhydrase 2; against Melanocortin receptor 5; in series [1]; against Cytochrome P450 2C19; at Leukotriene C4 synthase; in series [2]) was “Not Active” each time. The IC50 entry at Mu-type opioid receptor (cho-k1) was “Not Active”. Besides, the Ki entry (on Cytochrome P450 2C19; in series [2]) was “Not Active” in each case.

On to `CCn1cc(C(=O)O)c(=O)c2cc(F)c(N3CCNCC3)nc21` [ENOXACIN], for which the IC50 entry (at Carbonic anhydrase 2; on Melanocortin receptor 5; in series [1]; against Cytochrome P450 2C19; against Leukotriene C4 synthase; in series [2]) was “Not Active” in each case. Besides, the IC50 result at Mu-type opioid receptor (cho-k1) is recorded as “Not Active”. The Ki result (on Cytochrome P450 2C19; in series [2]) was “Not Active” each time.

On to `CCC(=O)O[C@H]1[C@H](O[C@@H]2[C@@H](C)[C@H](O[C@H]3C[C@@](C)(OC)[C@@H](O)[C@H](C)O3)[C@@H](C)C(=O)O[C@H](CC)[C@@](C)(O)[C@H](O)[C@@H](C)C(=O)[C@H](C)C[C@@]2(C)O)O[C@H](C)C[C@@H]1N(C)C` [ERYTHROMYCIN PROPIONATE], for which the IC50 entry (against Carbonic anhydrase 2; against Melanocortin receptor 5; in series [1]; at Cytochrome P450 2C19; at Leukotriene C4 synthase; in series [2]) was “Not Active” throughout. Moreover, the IC50 entry at Mu-type opioid receptor (cho-k1) is “Not Active”. For the same compound, the Ki entry (at Cytochrome P450 2C19; in series [2]) was “Not Active” throughout.

For `C=C(CC)C(=O)c1ccc(OCC(=O)O)c(Cl)c1Cl` [ETHACRYNIC ACID], the IC50 result (against Carbonic anhydrase 2; against Melanocortin receptor 5; in series [1]; against Cytochrome P450 2C19; against Leukotriene C4 synthase; in series [2]) was “Not Active” in each case. The IC50 entry on Mu-type opioid receptor (cho-k1) is reported as “Not Active”. Moreover, the Ki result (on Cytochrome P450 2C19; in series [2]) was “Not Active” throughout.

As for `C#C[C@]1(O)CC[C@H]2[C@@H]3CCc4cc(O)ccc4[C@H]3CC[C@@]21C` [ETHINYL ESTRADIOL], the IC50 entry (at Carbonic anhydrase 2; at Melanocortin receptor 5; in series [1]; against Cytochrome P450 2C19; against Leukotriene C4 synthase; in series [2]) was “Not Active” each time. Besides, the IC50 on Mu-type opioid receptor (read-out: IC50) worked out at 26.8 µM. Besides, the Ki result at Cytochrome P450 2C19 is “Not Active”; in series [2], “Not Active”; at Mu-type opioid receptor, 10.9 µM.

For the compound `OCCO` [ETHYLENE GLYCOL], the 50% inhibitory concentration (IC50) result (on Carbonic anhydrase 2; against Melanocortin receptor 5; in series [1]; on Cytochrome P450 2C19; at Leukotriene C4 synthase; in series [2]) was “Not Active” in each case. The IC50 entry at Mu-type opioid receptor (cho-k1) is recorded as “Not Active”. For the same compound, the Ki entry (at Cytochrome P450 2C19; in series [2]) was “Not Active” throughout.

`CC(=O)OCC(CCn1cnc2cnc(N)nc21)COC(C)=O` [FAMCICLOVIR]: the IC50 entry (on Carbonic anhydrase 2; against Melanocortin receptor 5; in series [1]; on Cytochrome P450 2C19; against Leukotriene C4 synthase; in series [2]) was “Not Active” throughout. Also, the IC50 result at Mu-type opioid receptor (cho-k1) is given as “Not Active”. The Ki result (on Cytochrome P450 2C19; in series [2]) was “Not Active” in each case.

On to `CC(C(=O)O)c1ccc(-c2ccccc2)c(F)c1` (stereo not given) [FLURBIPROFEN], for which the IC50 result (on Carbonic anhydrase 2; against Melanocortin receptor 5; in series [1]; at Cytochrome P450 2C19; on Leukotriene C4 synthase; in series [2]) was “Not Active” throughout. For the same compound, the IC50 result at Mu-type opioid receptor (cho-k1) is “Not Active”. Besides, the Ki result (at Cytochrome P450 2C19; in series [2]) was “Not Active” throughout.

With `NC[C@@H]1O[C@H](O[C@H]2[C@@H](O)[C@H](O[C@@H]3[C@@H](O)[C@H](N)C[C@H](N)[C@H]3O[C@H]3O[C@H](CN)[C@@H](O)[C@H](O)[C@H]3N)O[C@@H]2CO)[C@H](N)[C@@H](O)[C@@H]1O` [FRAMYCETIN], the IC50 entry (at Carbonic anhydrase 2; against Melanocortin receptor 5; in series [1]; at Cytochrome P450 2C19; on Leukotriene C4 synthase; in series [2]) was “Not Active” in each case. In addition, on Mu-type opioid receptor (cho-k1), the IC50 entry is listed as “Not Active”. Moreover, the Ki entry (at Cytochrome P450 2C19; in series [2]) was “Not Active” each time.

For the compound `C[C@H]([C@](O)(Cn1cncn1)c1ccc(F)cc1F)S(C)(=O)=O` [GENACONAZOLE], the IC50 result (against Carbonic anhydrase 2; against Melanocortin receptor 5; in series [1]; on Cytochrome P450 2C19; at Leukotriene C4 synthase; in series [2]) was “Not Active” in each case. In addition, the IC50 result on Mu-type opioid receptor (cho-k1) is listed as “Not Active”. The inhibition constant (Ki) result (on Cytochrome P450 2C19; in series [2]) was “Not Active” each time.
